Data reported in US20240109896A1, “FGFR KINASE INHIBITOR AND USE THEREOF” (YA THERAPEUTICS INC, priority 2021, published 2024).
Read-outs that look alike come from different tables or passages of the source.

How the values were obtained:
FGFR3 = FGFR3 (Homo sapiens, UniProt P22607); assay: In vitro activity inhibition test for kinase FGFR3;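 further: FGFR3 kinase activity read by Caliper mobility shift assay, compounds run as 10-point 4-fold dilution series, final DMSO 0.5%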
Protocol: (§1) In Vitro Activity Inhibition Test for Kinases FGFR1, FGFR2, FGFR3 and FGFR4
(§2) The activity of FGFR1, FGFR2, FGFR3 and FGFR4 protein kinases was determined by Caliper mobility shift assay. Perform a 4-fold gradient dilution from a working concentration of 0.2 mM in DMSO, diluting 10 concentrations. Add 2 μL of compound to 78 μL of 1× compound buffer. There were 10 points each for the negative control and the positive control. Shake the board on the rocker for 20 min. […] The final concentration of DMSO was 0.5%.

FGFR4 = FGFR4 (Homo sapiens, UniProt P22455); assay: In vitro activity inhibition test for kinase FGFR4;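 further: caliper mobility shift assay of FGFR4 kinase activity, compounds tested as 10-point 4-fold dilution series with 0.5% DMSO final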
FGFR4, sequence (P22455 22-802): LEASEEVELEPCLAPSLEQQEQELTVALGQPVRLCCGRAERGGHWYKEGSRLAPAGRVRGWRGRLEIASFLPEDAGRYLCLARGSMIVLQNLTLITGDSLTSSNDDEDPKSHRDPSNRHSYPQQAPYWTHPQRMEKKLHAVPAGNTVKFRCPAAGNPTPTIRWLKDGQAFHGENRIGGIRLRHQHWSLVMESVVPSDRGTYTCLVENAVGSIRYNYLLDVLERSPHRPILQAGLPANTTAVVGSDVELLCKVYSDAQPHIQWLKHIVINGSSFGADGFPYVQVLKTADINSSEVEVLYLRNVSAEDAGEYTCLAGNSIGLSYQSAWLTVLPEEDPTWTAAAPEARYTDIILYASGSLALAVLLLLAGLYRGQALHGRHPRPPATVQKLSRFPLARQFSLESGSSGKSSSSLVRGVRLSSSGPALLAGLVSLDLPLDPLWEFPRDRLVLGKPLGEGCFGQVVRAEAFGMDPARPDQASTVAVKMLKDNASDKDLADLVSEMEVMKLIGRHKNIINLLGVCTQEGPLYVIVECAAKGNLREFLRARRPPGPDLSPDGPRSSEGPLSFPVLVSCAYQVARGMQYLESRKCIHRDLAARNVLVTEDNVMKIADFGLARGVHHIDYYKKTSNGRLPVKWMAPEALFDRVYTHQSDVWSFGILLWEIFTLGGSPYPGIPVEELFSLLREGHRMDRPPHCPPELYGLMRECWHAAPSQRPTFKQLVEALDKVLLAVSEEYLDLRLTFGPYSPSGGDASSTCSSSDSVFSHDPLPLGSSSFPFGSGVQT
Protocol: as §1, §2

FGFR1 = FGFR1 (Homo sapiens, UniProt P11362); assay: In vitro activity inhibition test for kinase FGFR1
FGFR1, sequence (P11362 22-822): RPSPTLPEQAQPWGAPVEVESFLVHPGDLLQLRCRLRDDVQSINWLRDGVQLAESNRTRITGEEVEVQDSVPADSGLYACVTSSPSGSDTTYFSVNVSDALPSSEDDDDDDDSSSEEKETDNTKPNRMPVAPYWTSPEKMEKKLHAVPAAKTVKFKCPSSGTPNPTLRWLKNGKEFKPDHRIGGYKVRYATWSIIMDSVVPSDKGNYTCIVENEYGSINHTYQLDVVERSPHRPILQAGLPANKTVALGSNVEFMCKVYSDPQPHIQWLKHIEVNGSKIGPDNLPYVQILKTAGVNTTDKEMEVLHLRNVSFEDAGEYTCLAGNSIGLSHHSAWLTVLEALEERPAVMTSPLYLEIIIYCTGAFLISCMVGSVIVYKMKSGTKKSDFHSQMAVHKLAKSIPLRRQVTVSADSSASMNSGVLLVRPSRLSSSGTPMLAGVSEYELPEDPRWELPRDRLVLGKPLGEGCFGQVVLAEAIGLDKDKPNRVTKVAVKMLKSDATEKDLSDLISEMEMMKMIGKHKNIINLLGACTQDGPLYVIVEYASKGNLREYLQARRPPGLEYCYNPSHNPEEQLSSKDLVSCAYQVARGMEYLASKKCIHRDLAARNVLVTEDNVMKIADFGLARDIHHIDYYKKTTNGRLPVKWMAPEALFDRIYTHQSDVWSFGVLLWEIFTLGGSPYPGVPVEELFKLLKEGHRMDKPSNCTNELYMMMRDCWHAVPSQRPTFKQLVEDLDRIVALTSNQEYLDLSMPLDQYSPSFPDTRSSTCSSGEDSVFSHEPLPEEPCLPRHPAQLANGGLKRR
Protocol: as §1, §2

FGFR2 = FGFR2 (Homo sapiens, UniProt P21802); assay: In vitro activity inhibition test for kinase FGFR2; format: biochemical; conditions: kinase assay, 25° C.; read-out: Inhibition of separase IC50 (nM) FGFR2
FGFR2, sequence (P21802 22-821): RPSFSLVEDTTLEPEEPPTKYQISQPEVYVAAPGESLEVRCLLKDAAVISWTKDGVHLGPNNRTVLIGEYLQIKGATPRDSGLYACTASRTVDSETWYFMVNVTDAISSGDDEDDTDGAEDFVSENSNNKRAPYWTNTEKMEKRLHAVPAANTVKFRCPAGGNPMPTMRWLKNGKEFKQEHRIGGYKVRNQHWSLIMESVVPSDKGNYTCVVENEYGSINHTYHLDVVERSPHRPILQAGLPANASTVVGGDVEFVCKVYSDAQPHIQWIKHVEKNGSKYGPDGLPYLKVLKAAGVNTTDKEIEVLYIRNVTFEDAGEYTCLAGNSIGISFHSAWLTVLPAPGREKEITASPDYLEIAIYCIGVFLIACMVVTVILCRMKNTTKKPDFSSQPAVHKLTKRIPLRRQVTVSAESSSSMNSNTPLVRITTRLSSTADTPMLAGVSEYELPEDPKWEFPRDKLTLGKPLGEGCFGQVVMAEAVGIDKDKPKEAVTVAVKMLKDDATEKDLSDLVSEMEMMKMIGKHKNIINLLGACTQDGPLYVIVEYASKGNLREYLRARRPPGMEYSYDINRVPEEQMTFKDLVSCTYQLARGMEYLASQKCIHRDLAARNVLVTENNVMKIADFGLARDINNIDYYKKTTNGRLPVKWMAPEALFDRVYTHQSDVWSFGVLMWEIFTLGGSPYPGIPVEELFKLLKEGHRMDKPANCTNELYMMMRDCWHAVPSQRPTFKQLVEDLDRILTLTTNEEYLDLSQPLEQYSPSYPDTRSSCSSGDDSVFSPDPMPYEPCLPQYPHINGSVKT

FGFR3, sequence (P22607 23-806): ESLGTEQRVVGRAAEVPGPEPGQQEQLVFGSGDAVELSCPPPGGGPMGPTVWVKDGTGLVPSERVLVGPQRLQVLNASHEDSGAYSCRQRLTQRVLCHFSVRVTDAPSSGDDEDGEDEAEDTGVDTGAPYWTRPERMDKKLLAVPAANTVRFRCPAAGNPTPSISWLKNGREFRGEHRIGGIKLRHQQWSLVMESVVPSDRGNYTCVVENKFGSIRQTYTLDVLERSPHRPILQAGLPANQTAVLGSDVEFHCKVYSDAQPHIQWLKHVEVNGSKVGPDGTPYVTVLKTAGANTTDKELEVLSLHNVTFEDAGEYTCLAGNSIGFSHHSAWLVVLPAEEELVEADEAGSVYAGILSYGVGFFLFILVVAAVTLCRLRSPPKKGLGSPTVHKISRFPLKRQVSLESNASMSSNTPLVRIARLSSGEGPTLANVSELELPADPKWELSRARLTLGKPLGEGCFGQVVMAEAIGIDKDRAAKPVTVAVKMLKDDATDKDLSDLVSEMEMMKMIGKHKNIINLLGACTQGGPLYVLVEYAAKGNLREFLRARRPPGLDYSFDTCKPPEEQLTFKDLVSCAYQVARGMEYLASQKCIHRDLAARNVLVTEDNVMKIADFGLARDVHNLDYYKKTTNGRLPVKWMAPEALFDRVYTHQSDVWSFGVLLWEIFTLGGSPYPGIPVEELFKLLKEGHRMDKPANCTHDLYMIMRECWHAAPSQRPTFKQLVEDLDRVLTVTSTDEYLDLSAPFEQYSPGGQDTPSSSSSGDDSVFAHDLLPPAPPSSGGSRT

IC50 (FGFR3; read-out: Inhibition IC50 (nM) FGFR3, kinase assay, 25° C.) [nM] | IC50 (FGFR4; read-out: Inhibition of kinase IC50 (nM) FGFR4, kinase assay, 25° C.) [nM] | IC50 (FGFR1; read-out: Inhibition of FGFR1 IC50 (nM) FGFR1, kinase assay, 25° C.) [nM] | IC50 (FGFR2) [nM] | IC50 (FGFR3) [nM] | IC50 (FGFR4) [nM] | IC50 (FGFR1) [nM] | Compound
< 10 | < 10 | < 10 | < 10 |  |  |  | 2-(1-acryloylpyrrolidin-3-yl)-4-((3,5-dimethoxyphenyl)ethynyl)pyrimidine-5-carboxamide [Compound 19]
 |  |  | 10 to 100 | 100 to 500 | 10 to 100 | 10 to 100 | C=CC(=O)N1CC[C@H](Nc2nccc(C#Cc3cc(OC)cc(OC)c3)n2)C1 [Compound 1, (S)-1-(3-((4-((3,5-dimethoxyphenyl)ethynyl)pyrimidin-2-yl)amino)pyrrolidin-1-yl)prop-2-en-1-one]
 |  |  | 10 to 100 | 100 to 500 | 100 to 500 | 10 to 100 | C=CC(=O)N1CC[C@H](Nc2ncc(Br)c(C#Cc3cc(OC)cc(OC)c3)n2)C1 [Compound 2, (S)-1-(3-((5-bromo-4-((3,5-dimethoxyphenyl)ethynyl)pyrimidin-2-yl)amino)pyrrolidin-1-yl)prop-2-en-1-one]
 |  |  | 10 to 100 | 10 to 100 | 10 to 100 | 10 to 100 | C=CC(=O)N1CC[C@H](Nc2ncc(F)c(C#Cc3cc(OC)cc(OC)c3)n2)C1 [Compound 3, (S)-1-(3-((4-((3,5-dimethoxyphenyl)ethynyl)-5-fluoropyrimidin-2-yl)amino)pyrrolidin-1-yl)prop-2-en-1-one]
 |  |  | 100 to 500 | 10 to 100 | 10 to 100 | 10 to 100 | C=CC(=O)N1CC[C@H](Nc2ncc(C(F)(F)F)c(C#Cc3cc(OC)cc(OC)c3)n2)C1 [Compound 4, (S)-1-(3-((4-((3,5-dimethoxyphenyl)ethynyl)-5-(trifluoromethyl)pyrimidin-2-yl)amino)pyrrolidin-1-yl)prop-2-en-1-one]
 |  |  | 10 to 100 | 100 to 500 | 10 to 100 | 10 to 100 | C=CC(=O)N1CC[C@H](Nc2ncc(C#N)c(C#Cc3cc(OC)cc(OC)c3)n2)C1 [Compound 5, (S)-2-((1-acryloylpyrrolidin-3-yl)amino)-4-((3,5-dimethoxyphenyl)ethynyl)pyrimidine-5-carbonitrile]
 |  |  | < 10 | < 10 | < 10 | < 10 | C=CC(=O)N1CC[C@H](Nc2nc(N)c(C(N)=O)c(C#Cc3cc(OC)cc(OC)c3)n2)C1 [Compound 6, (S)-2-((1-acryloylpyrrolidin-3-yl)amino)-4-amino-6-((3,5-dimethoxyphenyl)ethynyl)pyrimidine-5-carboxamide]
 |  |  | 10 to 100 | 10 to 100 | 10 to 100 | 10 to 100 | C=CC(=O)N1CC2(CC(Nc3nc(N)c(C(N)=O)c(C#Cc4cc(OC)cc(OC)c4)n3)C2)C1 [Compound 7, 2-((2-acryloyl-2-azaspiro[3.3]heptan-6-yl)amino)-4-amino-6-((3,5-dimethoxyphenyl)ethynyl)pyrimidine-5-carboxamide]
 |  |  | 10 to 100 | 10 to 100 | 100 to 500 | 100 to 500 | C=CC(=O)N1CCC2(CC(Nc3nc(N)c(C(N)=O)c(C#Cc4cc(OC)cc(OC)c4)n3)C2)C1 (centres unmarked) [Compound 8, 2-((6-acryloyl-6-azaspiro[3.4]octan-2-yl)amino)-4-amino-6-((3,5-dimethoxyphenyl)ethynyl)pyrimidine-5-carboxamide]
 |  |  | 10 to 100 | 10 to 100 | 100 to 500 | 100 to 500 | C=CC(=O)N1CCC2(CC1)CC(Nc1nc(N)c(C(N)=O)c(C#Cc3cc(OC)cc(OC)c3)n1)C2 [Compound 9, 2-((7-acryloyl-7-azaspiro[3.5]nonan-2-yl)amino)-4-amino-6-((3,5-dimethoxyphenyl)ethynyl)pyrimidine-5-carboxamide]
 |  |  | 10 to 100 | 100 to 500 | 10 to 100 | 10 to 100 | C=CC(=O)N1CCC(Nc2nc(N)c(C(N)=O)c(C#Cc3cc(OC)cc(OC)c3)n2)CC1 [Compound 10, 2-((1-acryloylpiperidin-4-yl)amino)-4-amino-6-((3,5-dimethoxyphenyl)ethynyl)pyrimidine-5-carboxamide]
 |  |  | 10 to 100 | 100 to 500 | 10 to 100 | 10 to 100 | C=CC(=O)N1CCC[C@H](Nc2nc(N)c(C(N)=O)c(C#Cc3cc(OC)cc(OC)c3)n2)C1 [Compound 11, (S)-2-((1-acryloylpiperidin-3-yl)amino)-4-amino-6-((3,5-dimethoxyphenyl)ethynyl)pyrimidine-5-carboxamide]
 |  |  | < 10 | < 10 | < 10 | < 10 | CC#CC(=O)N1CC[C@H](Nc2nc(N)c(C(N)=O)c(C#Cc3cc(OC)cc(OC)c3)n2)C1 [Compound 12, (S)-4-amino-2-((1-(but-2-ynoyl)pyrrolidin-3-yl)amino)-6-((3,5-dimethoxyphenyl)ethynyl)pyrimidine-5-carboxamide]
 |  |  | 10 to 100 | 10 to 100 | 100 to 500 | 10 to 100 | CC#CC(=O)N1CC[C@H](Nc2ncc(Br)c(C#Cc3cc(OC)cc(OC)c3)n2)C1 [Compound 13, (S)-1-(3-((5-bromo-4-((3,5-dimethoxyphenyl)ethynyl)pyrimidin-2-yl)amino)pyrrolidin-1-yl)but-2-yn-1-one]
 |  |  | 10 to 100 | 100 to 500 | 10 to 100 | 10 to 100 | CC#CC(=O)N1CC[C@H](Nc2ncc(C(F)(F)F)c(C#Cc3cc(OC)cc(OC)c3)n2)C1 [Compound 14, (S)-1-(3-((4-((3,5-dimethoxyphenyl)ethynyl)-5-(trifluoromethyl)pyrimidin-2-yl)amino)pyrrolidin-1-yl)but-2-yn-1-one]
 |  |  | < 10 | < 10 | < 10 | < 10 | C=CC(=O)N1CC[C@@H](Nc2nc(N)c(C(N)=O)c(C#Cc3cc(OC)cc(OC)c3)n2)C1 [Compound 15, (R)-2-((1-acryloylpyrrolidin-3-yl)amino)-4-amino-6-((3,5-dimethoxyphenyl)ethynyl)pyrimidine-5-carboxamide]
 |  |  | < 10 | 10 to 100 | 10 to 100 | < 10 | C=CC(=O)N1CC[C@H](Nc2ncc(C(N)=O)c(C#Cc3cc(OC)cc(OC)c3)n2)C1 [Compound 16, (S)-2-((1-acryloylpyrrolidin-3-yl)amino)-4-((3,5-dimethoxyphenyl)ethynyl)pyrimidine-5-carboxamide]
 |  |  | < 10 | < 10 | < 10 | < 10 | C=CC(=O)N[C@H]1CCN(c2nc(N)c(C(N)=O)c(C#Cc3cc(OC)cc(OC)c3)n2)C1 [Compound 17, (S)-2-(3-acrylamidopyrrolidin-1-yl)-4-amino-6-((3,5-dimethoxyphenyl)ethynyl)pyrimidine-5-carboxamide]
 |  |  | < 10 | < 10 | < 10 | 10 to 100 | C=CC(=O)N1CCC(c2nc(N)c(C(N)=O)c(C#Cc3cc(OC)cc(OC)c3)n2)C1 (centres unmarked) [Compound 18, 2-(1-acryloylpyrrolidin-3-yl)-4-amino-6-((3,5-dimethoxyphenyl)ethynyl)pyrimidine-5-carboxamide]
 |  |  | < 10 | < 10 | < 10 | < 10 | CC#CC(=O)N1CCC[C@H](n2cc(C#Cc3cc(OC)cc(OC)c3)c3c(N)n[nH]c(=O)c32)C1 [Compound 21, (S)-4-amino-1-(1-(but-2-ynoyl)piperidin-3-yl)-3-((3,5-dimethoxyphenyl)ethynyl)-1,6-dihydro-7H-pyrrolo[2,3-d]pyridazin-7-one]
